Measured values taken from patent publication EP2272817A1, “PAI-1 INHIBITOR” (Institute of Medicinal Molecular Design, Inc., priority 2008, dated 2009).

Target: recombinant human PAI-1 (Homo sapiens, UniProt P05121)
Assay: Test Example 2: Human PAI-1 Inhibitory Activity (pH 7.4 HEPES buffer, 10 minutes incubation with two-chain tPA)
Format: biochemical
Parameters: purchased Molecular Innovations, Inc
Details: read-out: Inhibition Rate of PAI-1 Activity (%)
Description: 0.1 M HEPES, 0.1 M NaCl. 1 mM EDTA. 0.1 % Polyethylene glycol 8,000 (Hampton Research Corporation),
2 mM Dimethyldecylphoshine oxide [Apo-10] (Fluka Corporation)

Chain of recombinant human PAI-1 (P05121 24-402): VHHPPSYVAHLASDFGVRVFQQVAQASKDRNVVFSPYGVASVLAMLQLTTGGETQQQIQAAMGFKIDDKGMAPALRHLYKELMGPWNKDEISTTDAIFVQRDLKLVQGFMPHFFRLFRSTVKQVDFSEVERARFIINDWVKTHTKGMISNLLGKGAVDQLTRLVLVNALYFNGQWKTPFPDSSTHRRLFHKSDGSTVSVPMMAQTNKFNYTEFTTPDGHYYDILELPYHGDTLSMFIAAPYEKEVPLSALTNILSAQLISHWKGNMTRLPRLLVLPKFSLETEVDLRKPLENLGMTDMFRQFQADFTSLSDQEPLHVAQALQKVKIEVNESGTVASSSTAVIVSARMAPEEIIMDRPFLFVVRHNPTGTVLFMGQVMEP

SMILES	inhibition at 0.1 µM [%]	inhibition at 0.3 µM [%]	inhibition at 1 µM [%]	inhibition at 3 µM [%]	inhibition at 10 µM [%]	inhibition at 25 µM [%]
CCCCCOc1cc(-c2cccc(C(F)(F)F)c2)ccc1N(CCCCc1ccccc1)C(=O)C(=O)O [Compound 377]	1	23	83	94		
CC(C)(C)c1ccc(Oc2cc(-c3cccc(OC(F)(F)F)c3)ccc2CCC(=O)O)cc1 [Compound 504]	13	26	91	> 99		
CC(C)(C)c1ccc(Oc2cc(-c3ccc(C(F)(F)F)cc3)ccc2OCC(=O)O)cc1 [Compound 330]	0	1	47	96		
CCCCCOc1ccc(-c2ccc(C)cc2)cc1N(CCCCc1ccccc1)C(=O)C(=O)O [Compound 677]	19	17	93	96		
O=C(O)/C=C/c1ccc(-c2ccc(OC(F)(F)F)cc2)cc1OCCCSc1ccccc1 [Compound 489]	12	14	69	> 99		
CC(C)(C)c1ccc(-c2ccc(CCC(=O)O)c(Oc3ccc(OC(F)(F)F)cc3)c2)cc1 [Compound 480]	17	22	80	> 99		
O=C(O)C(=O)N(CCCCc1ccccc1)c1cc(-c2ccc(OC(F)(F)F)cc2)ccc1OCCCC1CCCCC1 [Compound 656]	24	64	95	88		
CC(C)c1ccc(Oc2cc(-c3ccc(OC(F)(F)F)cc3)ccc2CCC(=O)O)cc1 [Compound 510]	0	8	84	> 99		
CC(C)(C)c1ccc(Oc2cc(-c3ccc(C(C)(C)C)cc3)ccc2OCC(=O)O)cc1 [Compound 446]	3	13	84	> 99		
CC(C)(C)c1cccc(Oc2cc(-c3ccc(OC(F)(F)F)cc3)ccc2OCC(=O)O)c1 [Compound 436]	3	19	63	> 99		
CCCCCCC(Oc1cc(-c2ccc(OC(F)(F)F)cc2)ccc1Oc1ccc(C(F)(F)F)cc1)C(=O)O (centres unmarked) [Compound 327]	0	15	94	95		
CC(C)(C)c1ccc(Oc2cc(OCC(=O)O)cc(-c3ccc(OC(F)(F)F)cc3)c2)cc1 [Compound 427]	1	27	62	97		
CC(C)(C)[C@H]1CC[C@H](CN(C(=O)C(=O)O)c2ccc(-c3ccc(OC(F)(F)F)cc3)cc2)CC1 [Compound 679]	6	9	84	> 99		
O=C(O)C(=O)N(CCCCc1ccccc1)c1ccc(-c2ccc3ccccc3c2)cc1 [Compound 671]	26	12	23	92		
CCCCCCCCCOc1ccc(N(CCCCc2ccccc2)C(=O)C(=O)O)cc1-c1ccc(OC(F)(F)F)cc1 [Compound 387]	66	> 99	> 99	> 99		
CCCCCOc1ccc(-c2ccc(OC(F)(F)F)cc2)cc1N(CC(=O)O)C(=O)CCCc1ccccc1 [Compound 682]	2	5	32	98		
CC(C)(C)c1ccc(-c2ccc(/C=C/C(=O)O)c(Oc3ccc(OC(F)(F)F)cc3)c2)cc1 [Compound 478]	11	33	90	> 99		
O=C(O)C(=O)N(CCCCc1ccccc1)c1cc(-c2ccc(OC(F)(F)F)cc2)ccc1OC1C2CC3CC(C2)CC1C3 (centres unmarked) [Compound 634]	17	37	> 99	92		
CCCCc1ccc(Oc2cc(-c3ccc(OC(F)(F)F)cc3)ccc2/C=C/C(=O)O)cc1 [Compound 511]	11	68	> 99	> 99		
O=C(O)CCc1ccc(-c2ccc(OC(F)(F)F)cc2)cc1OCCCSc1ccccc1 [Compound 508]	18	9	48	98		
CC(Oc1cc(-c2ccc(OC(F)(F)F)cc2)ccc1/C=C/C(=O)O)c1ccccc1 (centres unmarked) [Compound 500]	19	14	25	80		

SMILES	inhibition at 0.1 µM [%]	inhibition at 0.3 µM [%]	inhibition at 1 µM [%]	inhibition at 3 µM [%]	inhibition at 10 µM [%]	inhibition at 25 µM [%]
CC(C)(C)c1ccc(Oc2ccc(-c3ccc(OC(F)(F)F)cc3)cc2OCC(=O)O)cc1 [Compound 302]	0	9	27	98		
CCCCCOc1ccc(-c2ccc(OC(F)(F)F)cc2)cc1CN(CC(=O)O)c1ccc(C(C)(C)C)cc1 [Compound 647]	27	43	95	98		
CCCCCOc1ccc(-c2cccc(C(F)(F)F)c2)cc1N(CCCCc1ccccc1)C(=O)C(=O)O [Compound 378]	20	7	80	91		
CC(C)(C)c1ccc(CN(C(=O)CC(=O)O)c2ccc(-c3ccc(OC(F)(F)F)cc3)cc2)cc1 [Compound 608]			11	59	95	95
CCCCCOc1cc(-c2cccc(OC(F)(F)F)c2)ccc1N(CCCCc1ccccc1)C(=O)C(=O)O [Compound 393]	8	19	75	97		
CC(C)(C)c1cccc(Oc2cc(-c3ccc(OC(F)(F)F)cc3)ccc2/C=C/C(=O)O)c1 [Compound 335]	4	8	80	> 99		
O=C(O)CC(=O)N(Cc1ccccc1)c1ccc(-c2ccc(OC(F)(F)F)cc2)cc1F [Compound 602]			9	18	78	> 99
CCCCC(Oc1ccc(-c2cccc(C)c2)cc1Oc1ccc(C(C)(C)C)cc1)C(=O)O (centres unmarked) [Compound 321]	3	15	86	94		
O=C(O)CCCCCCCCOc1ccc(-c2ccc(OC(F)(F)F)cc2)cc1N(CCCCc1ccccc1)C(=O)C(=O)O [Compound 646]	4	15	38	86		
CC(C)(C)c1ccc(C(=O)c2cc(-c3ccc(OC(F)(F)F)cc3)ccc2OCC(=O)O)cc1 [Compound 549]	23	22	84	> 99		
CCC(CC)Oc1ccc(-c2ccc(OC(F)(F)F)cc2)cc1N(CCCCc1ccccc1)C(=O)C(=O)O [Compound 369]	0	8	70	95		
O=C(O)C(=O)N(CCCCc1ccccc1)c1cc(-c2ccc(OC(F)(F)F)cc2)ccc1OCCCC1CCCC1 [Compound 355]	2	3	91	86		
CCCCOc1ccc(-c2ccc(OC(F)(F)F)cc2)cc1CCC(=O)O [Compound 407]			14	41	> 99	98
CC(C)(C)c1ccc(Oc2ccc(-c3cccc(C(F)(F)F)c3)cc2OCC(=O)O)cc1 [Compound 314]	0	5	22	93		
O=C(O)C(=O)N(CCCCc1ccccc1)c1cc(-c2ccc(OC(F)(F)F)cc2)ccc1Oc1ccccc1 [Compound 638]	5	15	57	> 99		
CSc1ccc(-c2ccc(OCC(=O)O)c(Oc3ccc(C(C)(C)C)cc3)c2)cc1 [Compound 448]	4	11	39	> 99		
CC(C)Oc1ccc(-c2ccc(OCC(=O)O)c(Oc3ccc(C(C)(C)C)cc3)c2)cc1 [Compound 460]	1	8	63	> 99		
CCCCCN(C(=O)C(=O)O)c1cc(-c2ccc(OC(F)(F)F)cc2)ccc1OCCCOc1ccccc1 [Compound 657]	15	20	99	> 99		
O=C(O)COc1ccc(-c2ccc(OC(F)(F)F)cc2)cc1OCCCCc1ccccc1 [Compound 337]	2	8	19	97		
CCCCCOc1ccc(-c2ccc(OC(F)(F)F)cc2)cc1N(CCCCOc1ccccc1)C(=O)C(=O)O [Compound 374]	5	16	57	> 99		
CCCCCCCOc1cc(-c2ccc(OC(F)(F)F)cc2)cc(OCCCCCCC)c1OCC(=O)O [Compound 425]	17	54	> 99			
